Experimental data as given in US20130296370A1, “COMPOSITION COMPRISING A PHOTOACTIVATABLE LARVICIDE” (UNIVERSITA DEGLI STUDI DI PADOVA, priority 2010, published 2013).

Legend:
An. stephensi = assay: Laboratory-scale tray larvicide test; format: in vivo; conditions: carrier mouse food; 6 mg per tray; loading concentration 0.5 μM; fluorescent lamp
Protocol: Laboratory strains of Anopheles stephensi, M and S (Kisumu), chromosomal forms of An. gambiae, An. arabiensis and Aedes aegypti, as well as field-collected Anopheles spp. and Aedes spp. larvae were used. Laboratory mosquitoes were maintained at 28-30° C., >90% RH and a photoperiod of 12 h. Light intensity ranged between 0.5 mW/cm^2 (fluorescent lamp) and 185 mW/cm^2 (sunlight).
C12 or C14 porphyrin solutions at 5-100 μM concentrations were pre-incubated at room temperature in the darkness with 15-60 mg of carrier (either Eudragit or ground mouse food or cat food) for 4-12 hours under gentle shaking. After incubation the solutions were filtered, and the loaded carrier was dried at room temperature or in an oven (45° C.).
One litre capacity, transparent plastic trays containing wells with each 500 ml water and 6-60 mg of the composition of the present invention were prepared. Batches of 60-100 L2, L3 or L4 larvae were introduced into the trays after sunset (or artificial light off). Larval mortality was evaluated the next day starting from 8.00 am, and the time required to reach at least 90% mortality was recorded. Larvae not moving or not showing an escaping response at probing were defined as dead or dying, and counted together (Tables 2 and 3). Pupae occasionally formed throughout the irradiation time were discarded and excluded from the evaluation. An equal number of batches of larvae prepared in the same way were kept in continuous darkness and mortality was evaluated similarly, to assess toxicity in the dark.
Light intensity range: 0.5-185 mW/cm^2.

[1] = Photostability of C14 porphyrin in aqueous medium; format: physicochemical; conditions: 2.5 μM in PBS; visible light 20 mW/cm^2 for up to 60 minutes
Protocol: The photostability of the C14 porphyrin was determined in phosphate-buffered saline (PBS) upon illumination of a 2.5 μM porphyrin solution (initial absorbance around 0.5 at 424 nm) with white light (400-800 nm), which was isolated from the emission of a quartz-halogen lamp equipped with broad band filters to eliminate UV and infrared radiation. The light source was supplied by Teclas (Lugano, Switzerland), and operated at a fluence rate of 20 mW/cm^2. During irradiation the porphyrin solution was kept in agitation on a magnetic stirrer at room temperature. The concentration of the porphyrin in the aqueous solution was monitored spectrophotometrically at different irradiation times up to 60 min, and the photostability was expressed as the percent residual absorbance referred to the absorbance measured before irradiation.
The stability of C14 to the effect of full spectrum visible light was studied for a 2.5 μM porphyrin solution in PBS. The exposure of the porphyrin to visible light at a fluence rate of 20 mW/cm^2 for up to 60 minutes caused a decrease in the overall absorbance of less than 10%, which involved the whole set of bands in the blue, green and red spectral region. […]

[2] = Adsorption and release of C14 on powdered food pellet (PFP); format: physicochemical; conditions: 70 mg PFP in 500 ml 5 μM C14, 28° C., dark
Protocol: C14 appeared to remain stably associated with food particles. Specifically, the C14 concentrations in the incubation buffers ranged from 0.01 μM (pH 7.0) to 0.024 μM (pH 9.5), corresponding to a release of just 2.14%-5.15% of the initial C14 amount.
A standard food pellet for laboratory rodents, namely 4RF18 GLP (Mucedola Srl, Italy), commonly used as mosquito larval food, was crushed using an electric blender and then sieved (mesh diameter 500 μm) to obtain powdered food pellet (PFP) with final particle diameter of 5-500 μm diameter. C14-PFP complexes were obtained by incubating PFP in C14 solutions. The loading of C14 on PFP and the dynamics of its release from the C14-PFP complexes in water were analysed by spectrophotometric quantification. Specifically, to evaluate the C14 binding rate on PFP, 70 mg of PFP were incubated in 500 ml of a 5 μM solution of C14, at 28° C. for 5 days, in the dark. The same C14 solution without PFP served as control. The amount of unbound porphyrin was then estimated by measuring the absorbance at 423 nm of the supernatant of aliquots of the solutions collected at various incubation times and centrifuged at 10,000 rpm for 10 minutes. […] The amount of porphyrin released in the media from the formulate complexes was measured as described above. […]

In the case of `CCCCCCCCCCCCCC[n+]1ccc(-c2c3nc(c(-c4cc[n+](C)cc4)c4ccc([nH]4)c(-c4cc[n+](C)cc4)c4nc(c(-c5cc[n+](C)cc5)c5ccc2[nH]5)C=C4)C=C3)cc1.Cc1ccc(S(=O)(=O)[O-])cc1.Cc1ccc(S(=O)(=O)[O-])cc1.Cc1ccc(S(=O)(=O)[O-])cc1.Cc1ccc(S(=O)(=O)[O-])cc1` [C14, meso-tri(N-methyl-pyridyl), mono(N-tetradecyl-pyridyl)porphine], the “Time to reach ≧90% mortality” value (An. stephensi) is reported as 1 h, the “decrease in the overall absorbance” value [1] is reported as “less than 10%” and the “C14 bound to the PFP particles” value ([2]; 24 hours) is reported as 82%. The “C14 bound to the PFP particles” value ([2]; 5 days) was 92%.
